Reference: patent publication US5612480A, “2-chloro and 2-bromo derivatives of 1,5-iminosugars” (priority 1995, dated 1997)
Converted amounts (≈) assume the structure as drawn. Where two headings read alike, the source gives them in different places.

Assays:
α-Glucosidase (yeast) = biological target: T1, α-Glucosidase (yeast) (Saccharomyces cerevisiae, UniProt P53341); experiment: Alpha-glucosidase (yeast) inhibition assay, pH 7.4; type: biochemical
T1 construct: purchased Sigma
Description: (§1) Yeast alpha-glucosidase and almond beta-glucosidase activities were measured by a modification of the method of Evans, et al., Phytochemistry 22, 768-770 (1983). The modifications included (1) assay of activities at pH 7.4 in HEPES (N-2-hydroxyethylpiperazine-N'-2-ethanesulfonic acid) buffer, 2) measurement in 96 well microtiter plates and (3) inclusion of 10% DMSO in control and test samples.
(§2) The release of p-nitrophenol from the substrate p-nitrophenylglycoside was measured spectrophotometrically in the presence and absence of test compound. Each assay included a known inhibitor of the enzyme as a standard. IC50 values were determined for compounds which inhibited the enzymes more than 50% at a 1 millimolar concentration.
(§3) To 100 μl 50 mM HEPES buffer, pH 7.4, in a microtiter plate, add 20 μl test compound in DMSO (DMSO alone in control), 40 μl (0.013 units) yeast alpha-glucosidase (Sigma) in HEPES buffer and pre-incubate at room temperature for 15 minutes. Add 40 μl 1.25 mM p-nitrophenyl-alpha-D-glucopyranoside (Sigma) in HEPES buffer, as substrate, and monitor absorbance change at 405 nm in a Biotek EIA Autoreader. Absorption change was measured at 15 to 25 minutes (reaction was linear for at least 30 minutes). Each sample was tested in triplicate. IC50 values were determined from the linear portion of the log concentration vs % inhibition curve obtained from a minimum of 3 points. Deoxynojirimycin was used as standard inhibitor.

HIV-1 = experiment: Anti-HIV activity: inhibition of HIV-1 induced cytopathic effect in CEM cells, MTT (Method B); type: cell-based, strain HTVL-IIIB; conditions: Human immunodeficiency virus 1, CCRF-CEM; for inhibition at 10 µg/mL: 10 μg/mL; for inhibition at 100 µg/mL: 100 μg/mL; for inhibition at 500 µg/mL: 500 μg/mL
Description: (§4) Inhibitory activity against HIV-1 was shown by tests involving plating of susceptible human host cells which are syncytium-sensitive with and without virus in microculture plates, adding various concentrations of the test compound, incubating the plates for 7 to 9 days (during which time infected, non-drug treated control cells are largely or totally destroyed by the virus), and then determining the remaining number of viable cells with a colorometric endpoint.
(§5) Various illustrative compounds synthesized above were tested for inhibition of visna virus in vitro in a plaque reduction assay (Method A) or for inhibition of HIV-1 in a test which measured reduction of cyto-pathogenic effect in virus-infected syncytium-sensitive Leu-3a-positive CEM cells grown in tissue culture (Method B) as follows:
Tissue culture plates were incubated at 37° C. in a humidified, 5% CO2 atmosphere and observed microscopically for toxicity and/or cytopathogenic effect (CPE). At 1 hour prior to infection each test article was prepared from the frozen stock, and a 20 μl volume of each dilution (prepared as a 10 X concentration) was added to the appropriate wells of both infected and uninfected cells.
Assays were done in 96-well tissue culture plates. CEM cells were treated with polybrene at a concentration of 2 μg/ml, and an 80 μl volume of cells (1×10^4 cells) was dispensed into each well. A 100 μl volume of each test article dilution (prepared as a 2 X concentration) was added to 5 wells of cells, and the cells were incubated at 37° C. for 1 hour. A frozen culture of HIV-1, strain HTVL-IIIB, was diluted in culture medium to a concentration of 5×10^4 TCID50 per ml, and a 20 μl volume (containing 10^3 TCID50 of virus) was added to 3 of the wells for each test article concentration. […] A 20 μl volume of normal culture medium was added to the remaining wells to allow evaluation of cytotoxicity. Each plate contained 6 wells of untreated, uninfected, cell control samples and 6 wells of untreated, infected, virus control samples.
On the 9th day post-infection, the cells in each well were resuspended and a 100 μl sample of each cell suspension was removed for use in an MTT assay. A 20 μl volume of a 5 mg/ml solution of 3-(4,5-dimethylthiazol-2-yl)-2,5-diphenyltetrazolium bromide (MTT) was added to each 100 μl cell suspension, and the cells were incubated at 37° C. in 5% CO2 for 4 hours. […] A 100 μl volume of a solution of 10% sodium dodecyl sulfate in 0.01 N hydrochloric acid was added to each sample, and the samples were incubated overnight. The absorbance at 590 nm was determined for each sample using a Molecular Devices Vmax microplate reader. This assay detects drug-induced suppression of viral CPE, as well as drug cytotoxicity, by measuring the generation of MTT-formazan by surviving cells.

visna virus = experiment: Inhibition of visna virus growth, plaque reduction assay in sheep choroid plexus (SCP) cells (Method A); type: cell-based
Description: Inhibitory activity against visna virus was shown by a conventional plaque reduction assay. Visna virus, a lentivirus genetically very similar to the AIDS virus, is pathogenic for sheep and goats. See Sonigo et al., Cell 42, 369-382 (1985); Haase, Nature 322, 130-136 (1986). Inhibition of visna virus replication in vitro as a useful model for HIV and its inhibition by test compounds has been described by Frank et al., Antimicrobial Agents and Chemotherapy 31 (9), 1369-1374 (1987).
as §5
Sheep choroid plexus (SCP) cells were obtained from American Type Culture Collection (ATCC) catalogue number CRL 1700 and were routinely passaged in vitro in Dulbecco's Modified Eagles (DME) medium supplemented with 20% fetal bovine serum (FBS). SCP cells were passaged once per week at a 1:2 or 1:3 split ratio. Visna was titrated by plaque assay in six-well plates. Virus pools were stored at -70° C.
SCP cells were cultured in 6-well plates to confluence. Wells were washed two times with serum free Minimal Essential Medium (MEM) to remove FBS. 0.2 ml of virus was added per well in MEM supplemented with 4 mM glutamine and gentamycin. After 1 hour adsorption, the virus was aspirated from each well. The appropriate concentration of each compound in 5 ml of Medium 199 (M-199) supplemented with 2% lamb serum, 4 mM glutamine, 0.5% agarose and gentamycin was added to each well. Cultures were incubated at 37° C. in a humidified 5% CO2 incubator for 3-4 weeks. To terminate the test, cultures were fixed in 10% formalin, the agar removed, the monolayers stained with 1% crystal violet and plaques counted. Each compound concentration was run in triplicate. […] 0 is no toxicity observed while 4 is total lysing of the cell monolayer. […]
Control wells without virus were completed to determine the toxicity of compounds.

β-Glucosidase (almond) [1] = experiment: Beta-glucosidase (almond) inhibitor assay, pH 4.8; type: biochemical
Description: as §1, §2
To 100 μl 50 mM sodium citrate buffer, pH 4.8, in a microtiter plate, add 15 μl test compound in DMSO (DMSO alone in control), 20 μl (0.017 units) beta-glucosidase (Sigma) in citrate buffer and pre-incubate at room temperature for 15 minutes. Add 25 μl 2.50 mM p-nitrophenyl-beta-D-glucopyranoside in citrate buffer, as substrate. Incubate at room temperature 20 minutes (reaction is linear for at least 30 minutes). Add 50 μl 0.4 M NaOH. Read absorption change at 405 nm in a Biotek EIA Autoreader. Each sample was tested in triplicate. IC50 values were determined from the linear portion of the log concentration vs % inhibition curve obtained from a minimum of 3 points. Castanospermine was used as standard inhibitor.

β-Glucosidase (almond) [2] = experiment: Beta-glucosidase (almond) inhibition assay, pH 7.4; type: biochemical
Description: as §1, §2
as §3, with “μl (0.136” for “μl (0.013”, “units) beta-glucosidase” for “units) yeast alpha-glucosidase”, “mM p-nitrophenyl-beta-D-glucopyranoside” for “mM p-nitrophenyl-alpha-D-glucopyranoside (Sigma)”, “as substrate” for “as substrate,”, “(reaction is” for “(reaction was”, “points. Castanospermine” for “points. Deoxynojirimycin”

α-glucosidase [3] = conditions: 0.1 mM; according to U.S. Pat. No. 5,025,021; cited from earlier work
β-glucosidase [4] = conditions: 0.1 mM; according to U.S. Pat. No. 5,025,021; cited from earlier work
α-glucosidase [5] = experiment: α-glucosidase inhibition, conventional in vitro assay (p-nitrophenol release); type: biochemical; conditions: 0.1 mM
Description: (§6) Inhibitory activity against α- and β-glucosidase enzymes was determined by conventional in vitro assays for these enzymes as described in U.S. Pat. No. 4,973,602. These assays involve spectrophotometric measurement of the release of p-nitrophenol from the substrate p-nitrophenyl-glycoside in the presence and absence of the test compound and comparison against a control standard that contains a known inhibitor of the enzyme.

β-glucosidase [6] = experiment: β-glucosidase inhibition, conventional in vitro assay (p-nitrophenol release); type: biochemical; conditions: 0.1 mM
Description: as §6

[7] = Cytotoxicity in CEM cells (TD50) in the standard CEM cell assay for HIV inhibition; type: cell-based; conditions: human
Description: as §4
This is illustrated by a side-by-side comparison between the 2-chloro-N-butyl-DNJ of the present invention and the corresponding 2-fluoro-N-butyl-DNJ disclosed in U.S Pat. No. 5,025,021. […] Moreover, the foregoing illustrative 2-chloro derivative also is a better enzyme inhibitor than the corresponding 2-fluoro derivative. The 2-chloro derivative inhibits α-glucosidase 46% and β-glucosidase 32% at 0.1 mM, whereas the corresponding 2-fluoro derivative inhibits these enzymes at only 8% and 4% at the same concentration according to U.S. Pat. No. 5,025,021.
Assays were done in 96-well tissue culture plates. […]
On the 9th day post-infection, the cells in each well were resuspended and a 100 μl sample of each cell suspension was removed for use in an MTT assay. […] The absorbance at 590 nm was determined for each sample using a Molecular Devices Vmax microplate reader. […]

[8] = pH 7.4, read-out: Percent inhibition of α-glucosidase (yeast)
[9] = CEM cells, Table 2, read-out: Anti-HIV activity, inhibition of virus induced cytopathic effect, EC50
[10] = standard CEM cell assay, side-by-side comparison

T1 sequence (P53341 whole entry): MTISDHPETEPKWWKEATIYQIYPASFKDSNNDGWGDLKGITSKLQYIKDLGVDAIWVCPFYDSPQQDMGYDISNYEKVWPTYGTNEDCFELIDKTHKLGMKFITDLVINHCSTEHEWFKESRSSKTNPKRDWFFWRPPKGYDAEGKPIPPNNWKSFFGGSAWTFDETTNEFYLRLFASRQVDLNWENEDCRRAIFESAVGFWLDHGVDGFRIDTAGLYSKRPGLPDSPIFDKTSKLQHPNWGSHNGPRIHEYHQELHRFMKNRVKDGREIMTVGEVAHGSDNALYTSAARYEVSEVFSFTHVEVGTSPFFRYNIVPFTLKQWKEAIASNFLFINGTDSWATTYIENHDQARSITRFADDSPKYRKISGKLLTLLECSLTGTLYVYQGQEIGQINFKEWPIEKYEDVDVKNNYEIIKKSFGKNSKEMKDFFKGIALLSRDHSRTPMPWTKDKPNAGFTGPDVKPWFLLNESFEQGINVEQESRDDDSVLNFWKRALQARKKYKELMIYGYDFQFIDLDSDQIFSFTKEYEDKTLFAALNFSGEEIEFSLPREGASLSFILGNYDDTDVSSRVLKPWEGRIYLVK

| SMILES | inhibition at 1 µM (α-Glucosidase (yeast); [8]) [%] | inhibition at 10 µM (α-Glucosidase (yeast); [8]) [%] | inhibition at 100 µM (α-Glucosidase (yeast); [8]) [%] | inhibition at 1000 µM (α-Glucosidase (yeast); [8]) [%] | EC50 (HIV-1; [9]) [µg/mL] | % inhibition of visna virus growth (visna virus; 0.001 mM) [%] | % inhibition of visna virus growth (visna virus; 0.01 mM) [%] | % inhibition of visna virus growth (visna virus; 0.1 mM) [%] | % inhibition of visna virus growth (visna virus; 1.0 mM) [%] | Percent inhibition of β-glucosidase (almond) (β-Glucosidase (almond) [1]; 100 μM) [%] | Percent inhibition of β-glucosidase (almond) (β-Glucosidase (almond) [1]; 1000 μM) [%] | Percent inhibition of β-glucosidase (almond) (β-Glucosidase (almond) [2]; 100 μM) [%] | Percent inhibition of β-glucosidase (almond) (β-Glucosidase (almond) [2]; 1000 μM) [%] | inhibition at 10 µg/mL (HIV-1; [10]) [%] | inhibition at 100 µg/mL (HIV-1; [10]) [%] | other results |
| --- | --- | --- | --- | --- | --- | --- | --- | --- | --- | --- | --- | --- | --- | --- | --- | --- |
| CCCCCCN1C[C@H](Cl)[C@@H](O)[C@H](O)[C@H]1CO [Example 28, 2-Chloro-1,2,5-trideoxy-1,5(hexylimino)-D-glucitol] | 4 | 37.6 | 82.9 | 95.5 | 11 (≈ 41.4 µM) | 6 | 61 | 100 | 100 | 43.7 | 84 | 62.9 | 90 |  |  |  |
| CCCCN1C[C@H](F)[C@@H](O)[C@H](O)[C@H]1CO [2-fluoro-N-butyl-DNJ, reference compound] |  |  |  |  |  |  |  |  |  |  |  |  |  | 0 | 0 | % inhibition of α-glucosidase (α-glucosidase [3]): 8%; inhibition at 500 µg/mL (HIV-1; standard CEM cell assay, side-by-side comparison, read-out: % inhibition of HIV): 3%; % inhibition of β-glucosidase (β-glucosidase [4]): 4% |
| CCCCN1[C@H](CO)[C@@H](O)[C@H](O)[C@H]1CN=[N+]=[N-] [Example 47, 1-Azido-2,5-(butylimino)-1,2,5-trideoxy-D-mannitol] |  |  |  |  |  |  |  |  |  | 11.2 | 32.6 | -4.1 | 6.7 |  |  | inhibition at 100 µM (α-Glucosidase (yeast); 100 μM, pH 7.4, read-out: Percent inhibition of α-glucosidase (yeast)): 22.7%; inhibition at 1000 µM (α-Glucosidase (yeast); 1000 μM, pH 7.4, read-out: Percent inhibition of α-glucosidase (yeast)): 24.8%; inhibition at 500 µg/mL (HIV-1; CEM cells, Table 2, read-out: Anti-HIV activity, % inhibition of virus induced cytopathic effect): 36% |
| CCCCN1C[C@H](Cl)[C@@H](O)[C@H](O)[C@H]1CO [Example 27, 1,5-(Butylimino)-2-chloro-1,2,5-trideoxy-D-glucitol] |  |  |  |  | 43 (≈ 181 µM) |  |  |  |  |  |  |  |  | 29.3 | 62.5 | % inhibition of α-glucosidase (α-glucosidase [5]): 46%; % inhibition of β-glucosidase (β-glucosidase [6]): 32%; EC50 (HIV-1; standard CEM cell assay, side-by-side comparison, read-out: EC50, HIV inhibition, calculated by linear regression): 43 µg/mL (≈ 181 µM); inhibition at 10 µM (visna virus; Visna-maedi virus, 0.01 mM): 39%; inhibition at 100 µM (visna virus; Visna-maedi virus, 0.1 mM): 38%; inhibition at 1000 µM (visna virus; Visna-maedi virus, 1.0 mM): 99%; CC50 [7]: 187 µg/mL (≈ 787 µM) |
| OC[C@@H]1[C@@H](O)[C@H](O)[C@@H](Cl)CN1CCCc1ccccc1 [Example 30, 2-Chloro-1,2,5-trideoxy-1,5-(3-phenyl)propylimino-D-glucitol] | 4.6 | 46.4 | 87.3 | 97.5 |  | 20 | 57 | 97 | 100 | 47.6 | 84.7 | 66.2 | 92.5 |  |  |  |
